# Data taken from patent EP1165610B1, “PEPTIDE USEFUL IN TREATING MULTIPLE SCLEROSIS AND A PHARMACEUTICAL COMPOSITION COMPRISING THE SAME” (TECNOGEN S.C.P.A., priority 1999, dated 2006).
# Ends that are not written are not given here.
# System: SJL female mice
# Test: In vivo activity in experimental allergic encephalitis (EAE) model, pre-immunization with peptide before EAE induction
# Details: for Incidence of EAE: number of mice with clinical EAE/number of mice immunized, after two weeks EAE induced with 300 nmoles P81-100 in CFA plus pertussis toxin, observed day 9 up to 60
# Method: The in vivo activity of the peptide compounds of formula (I) (SEQ ID NO: 1), were evaluated on four groups of SJL female mice, used at the age of 6-15 weeks. This strain of mice has been genetically selected for its ability to develop experimental allergic encephalitis (EAE).
# Two groups of mice have been immunized intraperitoneally with the peptide compound of formula (I) (SEQ ID NO: 1) (300 nmoles), dissolved in 0.05 ml of physiological solution and then emulsified with 0.05 ml of incomplete Freund's adjuvant (IFA) (Sigma, Italy).
# As positive and negative control, P81-100 (SEQ ID NO: 5) and IFA alone were used respectively.
# After two weeks EAE was induced in all groups by challenge with 300 nmoles of P81-100 (SEQ ID NO: 5) dissolved in 0.1 ml of physiological solution and then emulsified with 0.1 ml of complete Freund's adjuvant (CFA) (Sigma, Italy).
# Pertussis toxin (200 ng) (Fluka Chemie AG, Switzerland) was injected intravenously at the time of immunization and 2 days later. The role of pertussis toxin is to enhance the migration of autoreactive lymphocytes through the encephalic barrier (Bernard, et al., "J. Immunol." 114, 1537-1540, 1975).
# Mice were observed daily beginning at day 9 up to 60 for clinical signs of EAE and were graded according to the following clinical scale: 1, limp tail; 2, partial hind limp paralysis; 3, complete hind limp paralysis; 4, hind and front limp paralysis; 5, moribund (Broke S. et al., "Nature", 379, 343-346, 1996). Grade 5 mice were euthanized.
# [1] = 300 nmoles intraperitoneally in IFA
Compound,"Day of on-set (mean day of onset ± SD, 300 nmoles intraperitoneally in IFA, after two weeks EAE induced with 300 nmoles P81-100 in CFA)","Severity (mean severity of sick mice ± SD, clinical scale 1-5, 300 nmoles intraperitoneally in IFA, after two weeks EAE induced with 300 nmoles P81-100 in CFA)",Incidence of EAE [1],"development of EAE (result in words, summary of Table 1, SJL mice treated with peptide before EAE induction)"
CC[C@H](C)[C@H](NC(=O)[C@H](CC(N)=O)NC(=O)[C@H](CCCCN)NC(=O)[C@H](Cc1ccccc1)NC(=O)[C@H](Cc1ccccc1)NC(=O)[C@H](Cc1c[nH]cn1)NC(=O)[C@@H](NC(=O)[C@@H](NC(=O)[C@@H]1CCCN1C(=O)[C@@H](N)CC(N)=O)C(C)C)C(C)C)C(=O)N[C@H](C(=O)N[C@H](C(=O)N1CCC[C@H]1C(=O)N[C@@H](CCCNC(=N)N)C(=O)N[C@H](C(=O)N1CCC[C@H]1C(=O)N1CCC[C@H]1C(=O)N1CCC[C@H]1C(=O)N[C@@H](CO)C(=O)N[C@@H](CCC(N)=O)C(=O)O)[C@@H](C)O)[C@@H](C)O)C(C)C [Peptide P81-100],33±4.24,1.0±0,2/17,–
NGVGHGFGNGVGPGTGPGSG [Peptide I],–,–,0/17,didn't develop EAE
